Measured values as given in ChEMBL document CHEMBL1136343, “Naringenin derivatives as anti-atherogenic agents” (Bioorg Med Chem Lett, 2003).

Columns and labels:
Type in all cases: functional, organism-based
Oryctolagus cuniculus [1] = test: Plasma HDL cholesterol level was analyzed after administration of 0.1%, wt/wt diet in high cholesterol-fed rabbits at 0 weeks
Oryctolagus cuniculus [2] = test: Total plasma cholesterol was analyzed after administration of 0.1%, wt/wt diet in high cholesterol-fed rabbits at 0 weeks
Oryctolagus cuniculus [3] = test: Total plasma cholesterol was analyzed after administration of 0.1%, wt/wt diet in high cholesterol-fed rabbits after 8 weeks
Oryctolagus cuniculus [4] = test: Plasma triglyceride level was analyzed after administration of 0.1%, wt/wt diet in high cholesterol-fed rabbits after 0 weeks
Oryctolagus cuniculus [5] = test: Plasma triglyceride level was analyzed after administration of 0.1%, wt/wt diet in high cholesterol-fed rabbits after 8 weeks
Oryctolagus cuniculus [6] = test: Plasma HDL cholesterol level was analyzed after administration of 0.1%, wt/wt diet in high cholesterol-fed rabbits after 8 weeks

SMILES: CCCCCCCC/C=C/CCCCCCCC(=O)Oc1cc(O)c2c(c1)OC(c1ccc(O)cc1)CC2=O (configuration not stated)
- Plasma lipid level (Oryctolagus cuniculus [1]): 31 mg/dL
- Plasma lipid level (Oryctolagus cuniculus [2]): 51 mg/dL
- Plasma lipid level (Oryctolagus cuniculus [3]): 1040 mg/dL
- Plasma lipid level (Oryctolagus cuniculus [4]): 51 mg/dL
- Plasma lipid level (Oryctolagus cuniculus [5]): 105 mg/dL
- Plasma lipid level (Oryctolagus cuniculus [6]): 78 mg/dL

SMILES: CCCCCCCCCCCCCCCCC(=O)Oc1cc(O)c2c(c1)OC(c1ccc(O)cc1)CC2=O (configuration not stated)
- Plasma lipid level (Oryctolagus cuniculus [1]): 34 mg/dL
- Plasma lipid level (Oryctolagus cuniculus [2]): 53 mg/dL
- Plasma lipid level (Oryctolagus cuniculus [3]): 1060 mg/dL
- Plasma lipid level (Oryctolagus cuniculus [4]): 50 mg/dL
- Plasma lipid level (Oryctolagus cuniculus [5]): 85 mg/dL
- Plasma lipid level (Oryctolagus cuniculus [6]): 93 mg/dL
